From patent US8563547B2, “(6,7-dihydro-2-nitro-5H-imidazol[2,1-b][1,3]oxazin-6-yl) amide compounds, preparation methods and uses thereof” (Shanghai Sun-Sail Pharmaceutical Science & Technology Co., …, priority 2010, dated 2013)
≈ marks a conversion by molar mass, not a printed value. Like-named read-outs stand apart in the source and are kept apart here.

Assays:
physchem = type: physicochemical; conditions: for solubility at 3 days: pH 1.2, simulated gastric fluid, thermodynamic from solid
Method: 3-5 mg tested compound was added to 0.5 mL pH=1.2 HCL aqueous solution, shook for 3 days in a shaker, samples were centrifuged at 10000 r/min for 5 min, aspirated […] supernatant to 50 mL volumetric flask, added water and metered volume to the mark to make sample solution; precisely weighted 2.6 mg sample to 50 mL volumetric flask, added an appropriate amount of methanol to dissolve. Added water and metered volume to the mark, shook up to give control sample solution. Loaded 20 μL sample solution and control sample solution respectively, tested for liquid phase. Calculated as follows: Solubility (mg/mL)=C(control)*25*A(sample)/A(control)
C(control): the concentration of control sample
A(sample): peak area of liquid phase of sample solution
A(control): peak area of liquid phase of control sample solution

[1] = system: Mycobacterium tuberculosis strain H37Rv; test: Activity test for Mycobacterium tuberculosis (MIC, liquid medium, 96-well microplate); type: cell-based; conditions: for MIC: Mycobacterium tuberculosis, liquid medium, 37° C., read-out: Minimal inhibitory concentration for H37Rv; for activity for H37Rv, times as that of PA-824: relative to PA-824; for MIC for H37Rv, times as that of ethambutol: relative to ethambutol
Method: Tested Mycobacterium tuberculosis strain H37Rv was transferred to liquid medium, cultured for 2 weeks at 37° C., drew a little culture liquid of bacterium and placed into 4 mL liquid medium, added 10˜20 sterile glass bead of 2˜3 diameter, shook for 20˜30S, absolute-rest precipitated for 10˜20 min, aspirated bacterium suspension supernatant, turbidity was adjusted to 1 Maxwell unit with liquid medium, equivalent to 1×10^7CFU/mL for use. Each drug was dissolved to 1 mg/mL by adding an appropriate amount of DMSO, filtered through 0.22 μm filter. Again diluted to the required experimental concentration with liquid medium. The final concentration of test drugs were set as follows: 0.001 μg/mL, 0.002 μg/mL, 0.004 μg/mL, 0.008 μg/mL, 0.015 μg/mL, 0.03 μg/mL, 0.06 μg/mL, 0.12 μg/mL, 0.25 μg/mL, 0.5 μg/mL, 1 μg/mL, 2 μg/mL, 4 μg/mL, 8 μg/mL and 16 μg/mL, there totally are 15 concentration gradients. 100 μL of each above-mentioned drug solution was added to 96-well microplate, further added 100 μL […] bacteria liquid so that drug concentration could reach the set final concentration, cultured at 37° C. The same drug dilution was done in triplate in parallel, control group didn't added drug, inoculation amount was set to 100%, 10% and 1% respectively. Minimal inhibitory concentration (MIC) for Mycobacterium tuberculosis by each drug was observed, and compared with MIC results of first-line antituberculosis drug ethambutol and PA-824 in clinical research phase at the same time.

[2] = Tissue distribution test in mice; type: in vivo; conditions: orally administrated 25 mg/kg
Method: (§1) 16 healthy male ICR mice with 18-22 g of body weight were used. Drugs were employed by intravenous or gavage administration, administration doses were 5 mg and 25 mg/kg, administration volume was 10 mL/kg. Fasted for 12 h before test with free access to water. Uniformly fed at 2 h after administration. 0.3 mL blood was drawn through mice post-glomus venous plexus according to set time points, placed in heparinized test tube, centrifuged at 3000 r/min for 10 min, separated plasma, frozen in refrigerator at −20° C. When detected, samples were treated according to plasma sample treatment method, drug concentration in plasma was determined by LC-MS method, and calculated its pharmacokinetic parameters.
After compound 1 was orally administrated to mice (25 mg/kg), the concentrations of the compound in […], lung, brain and plasma at different time was shown as FIG. 1.

[3] = Drug metabolism test: pharmacokinetics in mice; type: in vivo, ICR mice; conditions: for MRT last: read-out: MRT0-t
Method: as §1

[4] = male, ICR, mouse, IV (5 mg/kg), plasma
[5] = male, ICR, mouse, PO (25 mg/kg), plasma

| Structure (SMILES) | water-solubility, times as that of PA-824 (physchem) [times] | solubility at 3 days (physchem) [µg/mL] | MIC [1] [µg/mL] | activity for H37Rv, times as that of PA-824 [1] [times] | MIC for H37Rv, times as that of ethambutol [1] [times] | also measured |
| --- | --- | --- | --- | --- | --- | --- |
| O=C(CCCN1CC(Oc2ccc(OC(F)(F)F)cc2)C1)N[C@@H]1COc2nc([N+](=O)[O-])cn2C1 [Compound 26, 4-(3-(4-(trifluoromethoxy)phenoxy)azetidin-1-yl)-N-((S)-6,7-dihydro-2-nitro-5H-imidazo [2,1-b][1,3]oxazin-6-yl)butyramide] | 90 | 846 (≈ 1740 µM) | 0.03 (≈ 0.0618 µM) | 4 | 16 |  |
| O=C(CCN1CCC(Oc2ccc(OC(F)(F)F)cc2)CC1)N[C@@H]1COc2nc([N+](=O)[O-])cn2C1 [Compound 22, (S)-N-(6,7-dihydro-2-nitro-5H-imidazo [2,1-b][1,3]oxazin-6-yl)-3-(4-(4-(trifluoromethoxy)phenoxy)piperid-1-yl)propanamide] | 72 | 677 (≈ 1360 µM) | 0.06 (≈ 0.12 µM) | 2 | 8 |  |
| O=[N+]([O-])c1cn2c(n1)OC[C@@H](OCc1ccc(OC(F)(F)F)cc1)C2 [PA-824, reference compound] |  | 9.4 (≈ 26.2 µM) | 0.12 (≈ 0.334 µM) |  |  |  |
| O=C(CN1CCC(Oc2ccc(OCCOC3CC3)cc2)CC1)N[C@@H]1COc2nc([N+](=O)[O-])cn2C1 [Compound 16, (S)-2-(4-(4-(2-(cyclopropoxy)ethoxy)phenoxy)piperid-1-yl)-N-(2-nitro-6,7-dihydro-5H-imidazo [2,1-b][1,3]oxazin-6-yl)acetamide] |  |  | 0.03 (≈ 0.0598 µM) | 4 | 16 |  |
| CC[C@@H](CO)NCCN[C@@H](CC)CO [ethambutol, reference compound] |  |  | 0.5 (≈ 2.45 µM) |  |  |  |
| O=C(CN1CCN(Cc2ccc(OC(F)(F)F)cc2)CC1)N[C@@H]1COc2nc([N+](=O)[O-])cn2C1 [Compound 17, (S)-N-(6,7-dihydro-2-nitro-5H-imidazo [2,1-b][1,3]oxazin-6-yl)-2-(4-(4-(trifluoromethoxy)benzyl)piperazin-1-yl)acetamide] | 155 | 1460 (≈ 3010 µM) | 0.12 (≈ 0.248 µM) |  |  |  |
| O=C(CN1CCC(Oc2ccc(OC(F)(F)F)c(F)c2)CC1)N[C@@H]1COc2nc([N+](=O)[O-])cn2C1 [Compound 3, 2-(4-(3-fluoro-4-(trifluoromethoxy)phenoxy)piperid-1-yl)-N-((S)-6,7-dihydro-2-nitro-5H-imidazo[2,1-b][1,3]oxazin-6-yl)acetamide] |  |  | 0.06 (≈ 0.119 µM) | 2 | 8 |  |
| CC(C)Oc1ccc(OC2CCN(CC(=O)N[C@@H]3COc4nc([N+](=O)[O-])cn4C3)CC2)cc1 [Compound 14] |  |  | 0.06 (≈ 0.131 µM) | 2 | 8 |  |
| O=C(CN1CCC(Oc2ccc(OC(F)(F)F)cc2)CC1)N[C@@H]1COc2nc([N+](=O)[O-])cn2C1 [Compound 1, (S)-N-(6,7-dihydro-2-nitro-5H-imidazo [2,1-b][1,3]oxazin-6-yl)-2-(4-(4-(trifluoromethoxy)phenoxy)piperid-1-yl)acetamide] | 79 | 746 (≈ 1540 µM) | 0.03 (≈ 0.0618 µM) | 4 | 16 | site of major distribution [2]: lung and spleen; tissue distribution property ([2]; FIG. 1): good tissue distribution property; CLz ([3]; IV (5 mg/kg)): 10.7 mL/min/kg; AUC(0-inf) [3, 4]: 7860 ng·h/mL; AUC(0-t) [3, 4]: 7850 ng·h/mL; Cmax [3, 4]: 3880 ng/mL; half-life [3, 4]: 2.8 h; MRT last [3, 4]: 3.6 h; AUC(0-inf) [3, 5]: 40200 ng·h/mL; AUC(0-t) [3, 5]: 40100 ng·h/mL; Cmax [3, 5]: 4790 ng/mL; Tmax [3, 5]: 1 h; half-life [3, 5]: 2.7 h; MRT last [3, 5]: 5 h; Vd ([3]; male, ICR, mouse, plasma, IV (5 mg/kg), read-out: Vz): 2.3 L/kg; bioavailability ([3]; male, ICR, mouse, plasma, PO 25 mg/kg vs IV 5 mg/kg, read-out: F (oral bioavailability)): 102% |
